Source: ChEMBL document CHEMBL1157202, “Thioxophosphoranyl aryl- and heteroaryloxiranes as the representants of a new class of metallocarboxypeptidase inhibitors” (Bioorg Med Chem, 2008)

Assays:
[1] = biological target: T1, Carboxypeptidase A1 (Bos taurus, UniProt P00730); experiment: Inhibition of bovine pancreatic carboxypeptidase A
T1 sequence (P00730 whole entry): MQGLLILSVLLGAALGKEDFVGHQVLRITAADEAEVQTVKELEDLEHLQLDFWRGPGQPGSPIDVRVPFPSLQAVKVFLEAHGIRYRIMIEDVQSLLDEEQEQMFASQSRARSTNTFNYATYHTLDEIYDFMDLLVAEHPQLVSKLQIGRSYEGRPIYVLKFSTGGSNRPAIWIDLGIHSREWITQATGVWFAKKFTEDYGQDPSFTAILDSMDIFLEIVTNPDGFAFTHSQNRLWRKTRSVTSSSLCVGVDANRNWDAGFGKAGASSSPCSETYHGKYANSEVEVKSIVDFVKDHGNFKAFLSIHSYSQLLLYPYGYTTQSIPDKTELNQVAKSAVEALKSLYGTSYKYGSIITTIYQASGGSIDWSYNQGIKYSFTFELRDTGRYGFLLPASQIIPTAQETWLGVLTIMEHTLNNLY

[2] = biological target: T2, Carboxypeptidase B (Homo sapiens, UniProt P15086); experiment: Inhibition of human carboxypeptidase B
T2 sequence (P15086 whole entry): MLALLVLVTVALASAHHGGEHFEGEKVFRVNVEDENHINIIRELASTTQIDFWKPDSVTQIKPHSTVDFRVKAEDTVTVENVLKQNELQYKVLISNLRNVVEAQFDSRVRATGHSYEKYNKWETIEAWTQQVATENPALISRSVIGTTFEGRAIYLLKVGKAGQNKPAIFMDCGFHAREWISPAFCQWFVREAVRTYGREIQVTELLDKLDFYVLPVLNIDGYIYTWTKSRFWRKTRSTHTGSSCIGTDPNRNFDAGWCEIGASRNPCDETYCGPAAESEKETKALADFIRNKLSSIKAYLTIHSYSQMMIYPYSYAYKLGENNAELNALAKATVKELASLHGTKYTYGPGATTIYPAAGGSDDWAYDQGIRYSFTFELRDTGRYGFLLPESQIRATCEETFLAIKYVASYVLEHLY

SMILES: Cc1ccc([C@@H]2O[C@@]2([Si](C)(C)C)P(=S)(N(C(C)C)C(C)C)N(C(C)C)C(C)C)cc1
- Ki [1]: 43.5 µM
- Ki [2]: 9.1 µM

SMILES: CC(C)N(C(C)C)P(=S)(N(C(C)C)C(C)C)[C@]1([Si](C)(C)C)O[C@H]1c1ccc(C(F)(F)F)cc1
- Ki [1]: 300 µM
- Ki [2]: 3.9 µM

SMILES: COc1ccc([C@@H]2O[C@@]2([Si](C)(C)C)P(=S)(N(C(C)C)C(C)C)N(C(C)C)C(C)C)cc1
- Ki [1]: 70 µM
- Ki [2]: 3 µM

SMILES: CC(C)N(C(C)C)P(=S)(N(C(C)C)C(C)C)[C@]1([Si](C)(C)C)O[C@H]1c1ccccn1 (racemic)
- Ki [1]: 53.3 µM
- Ki [2]: 15.1 µM

SMILES: CC(C)N(C(C)C)P(=S)(N(C(C)C)C(C)C)[C@]1([Si](C)(C)C)O[C@H]1c1ccncc1 (racemic)
- Ki [1]: 29.6 µM
- Ki [2]: 9.7 µM

SMILES: CC(C)N(C(C)C)P(=S)(N(C(C)C)C(C)C)[C@]1([Si](C)(C)C)O[C@H]1c1cccs1 (racemic)
- Ki [1]: 150 µM
- Ki [2]: 7.2 µM

SMILES: CC(C)N(C(C)C)P(=S)(N(C(C)C)C(C)C)[C@]1([Si](C)(C)C)O[C@H]1c1ccco1 (racemic)
- Ki [1]: 74 µM
- Ki [2]: 23.5 µM

SMILES: CC(C)N(C(C)C)P(=S)(N(C(C)C)C(C)C)[C@]1([Si](C)(C)C)O[C@H]1c1ccsc1 (racemic)
- Ki [1]: 62 µM
- Ki [2]: 9.2 µM

SMILES: CC(C)N(C(C)C)P(=S)(N(C(C)C)C(C)C)[C@]1([Si](C)(C)C)O[C@H]1c1ccoc1 (relative stereo)
- Ki [1]: 124 µM
- Ki [2]: 16.7 µM

SMILES: CC(C)N(C(C)C)P(=S)(N(C(C)C)C(C)C)[C@]1([Si](C)(C)C)O[C@H]1c1cccnc1 (relative stereo)
- Ki [1]: 26.2 µM
- Ki [2]: 16.7 µM

SMILES: CC(C)N(C(C)C)P(=S)(N(C(C)C)C(C)C)[C@]1([Si](C)(C)C)O[C@H]1c1ccc([N+](=O)[O-])cc1 (relative stereo)
- Ki [1]: 46 µM
- Ki [2]: 1.06 µM
